Consider four compounds from ChEMBL document CHEMBL1128534, “Cyclic lactam alpha-melanotropin analogues of Ac-Nle4-cyclo[Asp5, D-Phe7,Lys10] alpha-melanocyte-stimulating hormone-(4-10)-NH2 with bulky aromatic amino acids at position 7 show high antagonist potency and selectivity at specific melanocortin receptors” (J Med Chem, 1995).

Type in all cases: functional
The target of test [1] is Melanocyte-stimulating hormone receptor (Mus musculus, UniProt Q01727).
The target of test [2] is T1, Melanocyte-stimulating hormone receptor (Homo sapiens, UniProt Q01726). Kind of test: Evaluated for agonist at […] frog (Rana pipiens) skin assay.
Test [3] deals with T1, Melanocyte-stimulating hormone receptor.

Sequence of Melanocyte-stimulating hormone receptor (Mus musculus, UniProt Q01727) (Q01727 whole entry): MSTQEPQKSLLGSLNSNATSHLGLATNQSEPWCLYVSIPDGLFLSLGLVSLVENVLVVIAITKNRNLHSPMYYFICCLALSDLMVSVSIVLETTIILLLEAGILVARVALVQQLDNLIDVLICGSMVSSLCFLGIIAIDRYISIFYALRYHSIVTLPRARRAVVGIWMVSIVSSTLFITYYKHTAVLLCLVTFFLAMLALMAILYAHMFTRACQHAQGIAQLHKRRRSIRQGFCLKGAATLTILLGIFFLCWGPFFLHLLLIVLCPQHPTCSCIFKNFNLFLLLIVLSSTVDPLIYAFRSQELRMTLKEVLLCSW
T1 sequence (Q01726 whole entry): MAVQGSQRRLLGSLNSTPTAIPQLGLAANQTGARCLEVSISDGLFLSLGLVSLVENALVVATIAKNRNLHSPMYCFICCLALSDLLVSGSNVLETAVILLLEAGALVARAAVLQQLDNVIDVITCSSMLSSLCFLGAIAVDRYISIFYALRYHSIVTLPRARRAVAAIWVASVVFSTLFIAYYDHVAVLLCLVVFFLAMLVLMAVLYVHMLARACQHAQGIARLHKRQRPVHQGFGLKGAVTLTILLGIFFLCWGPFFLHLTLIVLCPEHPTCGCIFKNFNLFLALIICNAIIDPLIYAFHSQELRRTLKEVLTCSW

The compound `CCCC[C@H](NC(C)=O)C(=O)N[C@H]1CC(=O)NCCCC[C@@H](C(N)=O)NC(=O)[C@H](Cc2c[nH]c3ccccc23)NC(=O)[C@H](CCCNC(=N)N)NC(=O)[C@@H](Cc2ccc3ccccc3c2)NC(=O)[C@H](Cc2c[nH]cn2)NC1=O` gave an EC50 in test [1] of 0.039 nM.
In the case of `CCCC[C@H](NC(C)=O)C(=O)N[C@H]1CC(=O)NCCCC[C@@H](C(N)=O)NC(=O)[C@H](Cc2c[nH]c3ccccc23)NC(=O)[C@H](CCCNC(=N)N)NC(=O)[C@@H](Cc2ccc(Cl)cc2)NC(=O)[C@H](Cc2cnc[nH]2)NC1=O`, the EC50 in test [2] was found to be 2 nM; in test [1] it was 0.0095 nM; in test [3], 0.005 nM.
For `CCCC[C@H](NC(C)=O)C(=O)N[C@H]1CC(=O)NCCCC[C@@H](C(N)=O)NC(=O)[C@H](Cc2c[nH]c3ccccc23)NC(=O)[C@H](CCCN=C(N)N)NC(=O)[C@@H](Cc2ccc(F)cc2)NC(=O)[C@H](Cc2c[nH]cn2)NC1=O`, the EC50 is 0.1 nM in test [2], 0.026 nM in test [1] and 0.016 nM in test [3].
With `CCCC[C@H](NC(C)=O)C(=O)N[C@H]1CC(=O)NCCCC[C@@H](C(N)=O)NC(=O)[C@H](Cc2c[nH]c3ccccc23)NC(=O)[C@H](CCCN=C(N)N)NC(=O)[C@@H](Cc2ccc(I)cc2)NC(=O)[C@H](Cc2c[nH]cn2)NC1=O`, the EC50 turned out to be 0.19 nM in test [1] and 0.055 nM in test [3].

One may read the EC50 as the concentration at which the effect is half-maximal.
